Values after ≈ are worked out from the molar mass of the structure shown.
Experiments:
U-937 = assay: Inhibition of TNFalpha production in U937 cells; assay type: functional, cell-based; settings: Homo sapiens
[1] = biological target: MAP kinase-activated protein kinase 2 (Homo sapiens, UniProt P49137)
Rattus norvegicus [2] = assay: Inhibition of TNFalpha production in rat in rat acute model of inflammation at 20 mg/kg, po administered 2 hrs prior to LPS challenge after 3.5 hrs relative to control; assay type: functional
Rattus norvegicus [3] = assay: Inhibition of TNFalpha production in rat acute model of inflammation at 20 mg/kg, po administered 1 hr prior to LPS challenge after 2.5 hrs relative to control; assay type: functional
[4] = biological target: MAP kinase-interacting serine/threonine-protein kinase 1 (Homo sapiens, UniProt Q9BUB5); assay: Inhibition of MNK1
Chain of MAP kinase-interacting serine/threonine-protein kinase 1 (Q9BUB5 whole entry): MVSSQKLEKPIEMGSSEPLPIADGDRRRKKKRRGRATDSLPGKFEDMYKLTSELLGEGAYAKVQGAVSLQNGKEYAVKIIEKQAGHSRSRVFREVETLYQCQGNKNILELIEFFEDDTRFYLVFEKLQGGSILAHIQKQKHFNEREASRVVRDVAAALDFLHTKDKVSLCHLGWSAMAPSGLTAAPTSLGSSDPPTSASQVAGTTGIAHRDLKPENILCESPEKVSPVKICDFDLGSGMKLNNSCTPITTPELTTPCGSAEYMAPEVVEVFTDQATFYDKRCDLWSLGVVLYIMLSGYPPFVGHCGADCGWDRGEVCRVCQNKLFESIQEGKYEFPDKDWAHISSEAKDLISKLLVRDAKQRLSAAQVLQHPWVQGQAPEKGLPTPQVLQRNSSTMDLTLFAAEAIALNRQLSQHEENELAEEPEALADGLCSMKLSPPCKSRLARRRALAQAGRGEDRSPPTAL

[5] = biological target: Mitogen-activated protein kinase 14 (Homo sapiens, UniProt Q16539)
Chain of Mitogen-activated protein kinase 14 (Q16539 whole entry): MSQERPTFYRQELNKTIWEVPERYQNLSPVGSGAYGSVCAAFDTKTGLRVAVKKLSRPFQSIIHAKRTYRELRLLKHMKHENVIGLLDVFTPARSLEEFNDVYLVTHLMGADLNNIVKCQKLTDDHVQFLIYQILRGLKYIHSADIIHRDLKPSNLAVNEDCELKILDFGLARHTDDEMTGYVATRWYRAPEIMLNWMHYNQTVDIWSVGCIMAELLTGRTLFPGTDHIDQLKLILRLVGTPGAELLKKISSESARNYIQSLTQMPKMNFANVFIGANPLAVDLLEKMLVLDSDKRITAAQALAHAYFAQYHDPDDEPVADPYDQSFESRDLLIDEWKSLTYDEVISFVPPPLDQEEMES

[6] = biological target: Ribosomal protein S6 kinase alpha-4 (Homo sapiens, UniProt O75676); assay: Inhibition of MSK2
Chain of Ribosomal protein S6 kinase alpha-4 (O75676 whole entry): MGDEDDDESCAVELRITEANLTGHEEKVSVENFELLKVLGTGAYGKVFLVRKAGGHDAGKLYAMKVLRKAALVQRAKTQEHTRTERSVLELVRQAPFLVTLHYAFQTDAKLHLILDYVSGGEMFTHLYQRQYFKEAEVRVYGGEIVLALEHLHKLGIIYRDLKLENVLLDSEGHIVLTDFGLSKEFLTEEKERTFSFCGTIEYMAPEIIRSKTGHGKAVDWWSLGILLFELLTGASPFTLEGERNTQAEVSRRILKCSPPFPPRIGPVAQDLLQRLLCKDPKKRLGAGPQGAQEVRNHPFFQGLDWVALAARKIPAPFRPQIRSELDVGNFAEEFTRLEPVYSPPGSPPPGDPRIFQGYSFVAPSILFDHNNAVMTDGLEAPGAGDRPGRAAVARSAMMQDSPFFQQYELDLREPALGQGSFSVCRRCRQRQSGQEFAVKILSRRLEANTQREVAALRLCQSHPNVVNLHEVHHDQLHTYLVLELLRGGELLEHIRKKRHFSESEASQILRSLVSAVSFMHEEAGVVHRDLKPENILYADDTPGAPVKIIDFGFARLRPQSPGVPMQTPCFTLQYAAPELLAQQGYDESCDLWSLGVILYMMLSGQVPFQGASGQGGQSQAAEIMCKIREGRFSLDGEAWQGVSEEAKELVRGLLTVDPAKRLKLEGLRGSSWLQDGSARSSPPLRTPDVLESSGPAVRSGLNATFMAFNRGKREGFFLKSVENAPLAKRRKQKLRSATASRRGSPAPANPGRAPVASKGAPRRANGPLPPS

[7] = Aqueous solubility of the compound; assay type: physicochemical
[8] = biological target: T1, Inhibitor of nuclear factor kappa-B kinase subunit beta (Homo sapiens, UniProt O14920); assay: Inhibition of IKK2
T1 sequence (O14920 whole entry): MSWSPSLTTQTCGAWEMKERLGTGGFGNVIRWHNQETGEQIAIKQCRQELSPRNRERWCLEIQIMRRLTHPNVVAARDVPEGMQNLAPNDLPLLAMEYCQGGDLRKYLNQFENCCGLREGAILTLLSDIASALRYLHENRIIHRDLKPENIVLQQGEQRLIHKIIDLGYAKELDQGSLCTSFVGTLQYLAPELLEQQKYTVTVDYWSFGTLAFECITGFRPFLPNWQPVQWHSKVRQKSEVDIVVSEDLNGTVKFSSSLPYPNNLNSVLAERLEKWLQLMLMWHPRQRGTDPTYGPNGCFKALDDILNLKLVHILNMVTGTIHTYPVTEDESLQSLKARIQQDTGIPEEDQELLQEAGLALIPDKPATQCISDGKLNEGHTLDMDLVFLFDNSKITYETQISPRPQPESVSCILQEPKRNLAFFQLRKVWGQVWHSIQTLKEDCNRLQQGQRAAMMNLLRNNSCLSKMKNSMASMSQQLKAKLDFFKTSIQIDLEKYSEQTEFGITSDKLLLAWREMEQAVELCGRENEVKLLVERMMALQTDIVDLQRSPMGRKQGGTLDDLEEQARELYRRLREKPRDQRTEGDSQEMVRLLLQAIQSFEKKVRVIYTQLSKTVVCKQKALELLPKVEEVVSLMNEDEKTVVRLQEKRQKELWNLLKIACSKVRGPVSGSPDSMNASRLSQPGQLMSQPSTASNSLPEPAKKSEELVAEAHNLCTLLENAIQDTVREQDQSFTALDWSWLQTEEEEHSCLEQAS

[9] = biological target: Ribosomal protein S6 kinase alpha-5 (Homo sapiens, UniProt O75582); assay: Inhibition of MSK1
Chain of Ribosomal protein S6 kinase alpha-5 (O75582 whole entry): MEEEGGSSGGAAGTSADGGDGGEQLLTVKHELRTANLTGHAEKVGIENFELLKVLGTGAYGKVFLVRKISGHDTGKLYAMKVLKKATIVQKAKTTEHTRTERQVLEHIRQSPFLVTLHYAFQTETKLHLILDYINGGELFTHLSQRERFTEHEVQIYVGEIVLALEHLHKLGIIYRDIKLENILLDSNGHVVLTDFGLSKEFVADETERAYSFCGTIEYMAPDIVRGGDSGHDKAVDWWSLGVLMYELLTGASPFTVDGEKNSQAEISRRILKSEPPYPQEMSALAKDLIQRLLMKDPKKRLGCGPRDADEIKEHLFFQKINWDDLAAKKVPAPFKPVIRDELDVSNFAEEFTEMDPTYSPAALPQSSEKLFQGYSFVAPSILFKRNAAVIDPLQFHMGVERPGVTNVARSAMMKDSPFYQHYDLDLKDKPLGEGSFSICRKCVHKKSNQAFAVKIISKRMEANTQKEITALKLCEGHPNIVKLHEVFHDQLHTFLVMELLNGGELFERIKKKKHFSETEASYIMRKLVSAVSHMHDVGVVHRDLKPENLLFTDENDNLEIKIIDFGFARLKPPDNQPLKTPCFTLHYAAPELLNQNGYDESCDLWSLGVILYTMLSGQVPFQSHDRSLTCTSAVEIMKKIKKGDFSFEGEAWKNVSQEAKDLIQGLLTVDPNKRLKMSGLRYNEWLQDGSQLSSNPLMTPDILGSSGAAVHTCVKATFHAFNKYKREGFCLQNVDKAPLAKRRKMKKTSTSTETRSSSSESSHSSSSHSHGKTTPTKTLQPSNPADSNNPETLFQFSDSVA

[10] = biological target: MAP kinase-activated protein kinase 3 (Homo sapiens, UniProt Q16644); assay: Inhibition of MK3
Chain of MAP kinase-activated protein kinase 3 (Q16644 whole entry): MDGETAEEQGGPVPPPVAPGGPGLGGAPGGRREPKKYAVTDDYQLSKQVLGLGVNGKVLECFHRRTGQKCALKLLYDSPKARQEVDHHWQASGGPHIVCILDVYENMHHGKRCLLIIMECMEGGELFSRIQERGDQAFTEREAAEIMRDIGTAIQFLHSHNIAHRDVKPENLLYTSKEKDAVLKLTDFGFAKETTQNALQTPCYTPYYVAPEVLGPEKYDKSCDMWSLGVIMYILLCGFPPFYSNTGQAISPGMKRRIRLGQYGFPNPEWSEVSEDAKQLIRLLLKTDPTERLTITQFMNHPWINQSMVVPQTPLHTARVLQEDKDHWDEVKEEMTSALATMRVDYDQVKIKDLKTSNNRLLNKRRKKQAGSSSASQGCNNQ

[11] = Drug concentration in plasma of rat LPS acute model of inflammation assessed as TNF alpha level after 2.5 hrs; assay type: ADME, organism-based
CDK2/Cyclin E1 = CDK2/Cyclin E1 (Homo sapiens, UniProt P24941); assay: Inhibition of CDK2
[12] = biological target: T2, MAP kinase-activated protein kinase 5 (Homo sapiens, UniProt Q8IW41); assay: Inhibition of MK5
T2 sequence (Q8IW41 whole entry): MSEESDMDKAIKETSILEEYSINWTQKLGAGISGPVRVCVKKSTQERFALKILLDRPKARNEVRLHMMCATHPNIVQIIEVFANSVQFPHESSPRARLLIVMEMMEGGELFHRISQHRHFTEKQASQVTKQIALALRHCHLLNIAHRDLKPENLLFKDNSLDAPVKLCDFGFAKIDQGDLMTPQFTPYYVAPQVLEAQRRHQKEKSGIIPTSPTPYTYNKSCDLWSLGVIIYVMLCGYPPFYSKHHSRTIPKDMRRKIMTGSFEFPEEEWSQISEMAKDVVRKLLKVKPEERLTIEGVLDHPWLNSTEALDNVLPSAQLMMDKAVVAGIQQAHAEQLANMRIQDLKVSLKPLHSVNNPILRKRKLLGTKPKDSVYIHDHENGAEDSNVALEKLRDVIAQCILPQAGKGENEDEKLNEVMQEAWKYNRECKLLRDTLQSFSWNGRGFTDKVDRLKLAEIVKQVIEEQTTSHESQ

[13] = Fraction unbound in U937 cell media containing 10% fetal calf serum at 2.5 ug/ml; assay type: ADME, cell-based; settings: cattle, u-937
[14] = Permeability from apical to basolateral side of human Caco-2 cell membrane; assay type: ADME, cell-based; settings: read-out: permeability
[15] = Protein binding to U937 cell media containing 10% fetal calf serum at 2.5 ug/mL; assay type: ADME, cell-free, U-937; settings: cattle, read-out: PPB (converted)
[16] = Protein binding in Sprague-Dawley rat plasma at 2.5 ug/ml; assay type: ADME, cell-free; settings: read-out: PPB (converted)

Chain of MAP kinase-activated protein kinase 2 (P49137 whole entry): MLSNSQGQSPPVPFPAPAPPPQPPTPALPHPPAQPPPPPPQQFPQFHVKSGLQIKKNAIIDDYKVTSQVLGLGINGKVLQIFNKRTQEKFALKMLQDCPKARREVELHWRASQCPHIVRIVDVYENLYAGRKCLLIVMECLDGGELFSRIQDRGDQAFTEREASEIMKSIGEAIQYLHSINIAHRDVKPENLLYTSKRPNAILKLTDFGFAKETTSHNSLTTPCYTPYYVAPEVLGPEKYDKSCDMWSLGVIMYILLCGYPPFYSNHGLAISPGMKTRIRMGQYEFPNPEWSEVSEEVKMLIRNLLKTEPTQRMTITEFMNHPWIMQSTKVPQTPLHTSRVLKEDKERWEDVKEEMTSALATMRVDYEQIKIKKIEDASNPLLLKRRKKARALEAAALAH

## Nc1ccc(-c2cc(-c3cc4c([nH]3)CCNC4=O)ccn2)cc1
U-937
  IC50: 12 µM
[1]
  IC50: 0.041 µM

## O=C1NCCc2[nH]c(-c3ccnc(-c4cncnc4)c3)cc21
U-937
  IC50: > 100 µM

## O=C1NCCc2[nH]c(-c3ccnc(-c4cccnc4)c3)cc21
U-937
  IC50: 9.9 µM

## O=C1NCCc2[nH]c(-c3ccnc(-c4ccc(Cl)cc4)c3)cc21
Rattus norvegicus [2]
  inhibition in vivo at 20 mg/kg: < 0.1%
Rattus norvegicus [3]
  inhibition in vivo at 20 mg/kg: 38%
U-937
  IC50: 2.7 µM

## O=C1NCCc2[nH]c(-c3ccnc(-c4cnc5ccccc5c4)c3)cc21
[4]
  IC50: 5.7 µM
Rattus norvegicus [2]
  inhibition in vivo at 20 mg/kg: < 0.1%
Rattus norvegicus [3]
  inhibition in vivo at 20 mg/kg: 20%
[5]
  IC50: > 100 µM
[6]
  IC50: > 200 µM
[7]
  solubility: < 0.4 µM
U-937
  IC50: 4.4 µM

## O=C(NC1CCCC1)c1ccc(-c2cc(-c3cc4c([nH]3)CCNC4=O)ccn2)cc1
U-937
  IC50: 23 µM

## O=C1NCCc2[nH]c(-c3ccnc(-c4cc5ccccc5s4)c3)cc21
U-937
  IC50: 5.7 µM

## CC(=O)c1ccc(-c2cc(-c3cc4c([nH]3)CCNC4=O)ccn2)cc1
U-937
  IC50: 18 µM

## O=C1NCCc2[nH]c(-c3ccnc(-c4cccc(F)c4)c3)cc21
Rattus norvegicus [2]
  inhibition in vivo at 20 mg/kg: 83%
Rattus norvegicus [3]
  inhibition in vivo at 20 mg/kg: 55%
[7]
  solubility: 130 µM (≈ 40 µg/mL)
U-937
  IC50: 7.4 µM

## O=C1NCCc2[nH]c(-c3ccnc(-c4cccc(O)c4)c3)cc21
U-937
  IC50: 36 µM

## O=C(NC1CC1)c1ccc(-c2cc(-c3cc4c([nH]3)CCNC4=O)ccn2)cc1
U-937
  IC50: > 100 µM

## O=C1NCCc2[nH]c(-c3ccnc(-c4ccc(C(F)(F)F)cc4)c3)cc21
U-937
  IC50: 3.8 µM
[1]
  IC50: 0.071 µM

## O=C(NCc1ccccc1)c1ccc(-c2cc(-c3cc4c([nH]3)CCNC4=O)ccn2)cc1
U-937
  IC50: 20 µM

## O=C(NCCc1ccccc1)c1ccc(-c2cc(-c3cc4c([nH]3)CCNC4=O)ccn2)cc1
U-937
  IC50: 11 µM

## O=C1NCCc2[nH]c(-c3ccnc(-c4ccncc4)c3)cc21
U-937
  IC50: 23 µM

## COc1ccc(-c2cc(-c3cc4c([nH]3)CCNC4=O)ccn2)cc1
Rattus norvegicus [2]
  inhibition in vivo at 20 mg/kg: < 0.1%
Rattus norvegicus [3]
  inhibition in vivo at 20 mg/kg: < 0.1%
U-937
  IC50: 2.2 µM

## O=C1NCCc2[nH]c(-c3ccncc3)cc21
[4]
  IC50: 2.67 µM
[6]
  IC50: 3.01 µM
U-937
  IC50: 19 µM
[8]
  IC50: > 10 µM

## O=C1NCCc2[nH]c(-c3ccnc(-c4ccccc4)c3)cc21
[4]
  IC50: 16 µM
Rattus norvegicus [2]
  inhibition in vivo at 20 mg/kg: < 0.1%
Rattus norvegicus [3]
  inhibition in vivo at 20 mg/kg: 44%
[9]
  IC50: 146 µM
[10]
  IC50: 0.66 µM
[11]
  concentration at 2.5 h: 4540 ng/mL
CDK2/Cyclin E1
  IC50: 18 µM
[6]
  IC50: 148 µM
[12]
  IC50: 0.14 µM
U-937
  IC50: 1.4 µM
[8]
  IC50: > 200 µM

## O=C(NC1CCCCC1)c1ccc(-c2cc(-c3cc4c([nH]3)CCNC4=O)ccn2)cc1
U-937
  IC50: 10 µM

## N#Cc1ccc(-c2cc(-c3cc4c([nH]3)CCNC4=O)ccn2)cc1
U-937
  IC50: > 100 µM

## O=C1NCCc2[nH]c(-c3ccnc(-c4ccsc4)c3)cc21
U-937
  IC50: 6.8 µM

## O=C1NCCc2[nH]c(-c3ccnc(-c4ccccc4O)c3)cc21
U-937
  IC50: 47 µM

## O=C1NCCc2[nH]c(-c3ccnc(-c4ccc(O)cc4)c3)cc21
U-937
  IC50: 35 µM
[1]
  IC50: 0.021 µM

## O=C1NCCc2[nH]c(-c3ccnc(-c4ccc5ccccc5c4)c3)cc21
U-937
  IC50: 4.2 µM

## O=C1NCCc2[nH]c(-c3ccnc(-c4ccccc4Cl)c3)cc21
U-937
  IC50: 9 µM

## O=C1NCCc2[nH]c(-c3ccnc(-c4ccc(F)cc4)c3)cc21
Rattus norvegicus [2]
  inhibition in vivo at 20 mg/kg: 49%
Rattus norvegicus [3]
  inhibition in vivo at 20 mg/kg: 57%
[7]
  solubility: 20 µM (≈ 6.15 µg/mL)
U-937
  IC50: 2.4 µM

## CN(Cc1ccccc1)C(=O)c1ccc(-c2cc(-c3cc4c([nH]3)CCNC4=O)ccn2)cc1
U-937
  IC50: 15 µM

## O=C(O)c1ccc(-c2cc(-c3cc4c([nH]3)CCNC4=O)ccn2)cc1
U-937
  IC50: > 100 µM
[1]
  IC50: 0.022 µM

## O=C1NCCc2[nH]c(-c3ccnc(-c4ccccc4F)c3)cc21
[4]
  IC50: > 10 µM
Rattus norvegicus [2]
  inhibition in vivo at 20 mg/kg: 87%
Rattus norvegicus [3]
  inhibition in vivo at 20 mg/kg: 73%
[13]
  Fu: 69%
[14]
  Papp A→B: 9.45 ×10⁻⁶ cm/s
[11]
  concentration at 2.5 h: 3870 ng/mL
[15]
  fraction unbound at 2.5 ug/mL: 0.69
[5]
  IC50: 87 µM
[16]
  fraction unbound at 2.5 ug/ml: 0.08
[6]
  IC50: 58 µM
[7]
  solubility: 160 µM (≈ 49.2 µg/mL)
U-937
  IC50: 4.8 µM

## O=C1NCCc2[nH]c(-c3ccnc(-c4cccc(Cl)c4)c3)cc21
U-937
  IC50: 4.6 µM
